Data: patent publication US7105505B2, “Benzimidazole derivatives useful as histamine H3 antagonists” (Schering Corporation, priority 2002, dated 2006)

Legend:
[1] = target: T1, human histamine H3 receptor (Homo sapiens, UniProt Q9Y5N1); assay: rHu H3 Binding Assay (HEK-293 membranes); conditions: Receptor Source rHu, 1.2 nM [3H]Nα-methylhistamine
T1 construct: expressed in transfected cells
Method: General Procedure for rHu H3Binding Assay
[^3H]N^∝-methylhistamine (82 Ci/mmole) was obtained from Dupont NEN. Thioperamide was obtained from the Chemical Research Department, Schering-Plough Research Institute.
HEK-293 human embryonic kidney cells stably expressing the human histamine H3 receptor were cultured in Dulbecco's modified Eagle's medium/10% fetal calf serum/penicillin (100 U/ml)/streptomycin (100 μg/ml)/Geneticin (0.5 mg/ml) at 37° C. in a humidified 5% CO2 atmosphere. Cells were harvested between passages five and twenty at 37° C. in 5 mM EDTA/Hank's balanced salt solution and processed for membrane preparation. After low-speed centrifugation, ten min at 1000×g, they were put into ten volumes of ice-cold buffer and disrupted with a Polytron (PTA 35/2 tip, 30 sec at setting 6). After subsequent low-speed centrifugation, supernatant was centrifuged ten min at 50,000×g. The high-speed pellet was resuspended in the original volume of buffer, a sample was taken for protein assay (bicinchoninic acid, Pierce) and the suspension was centrifuged again at 50,000×g. Membranes were resuspended at 1 mg of protein/ml of buffer and frozen at −80° C. until use.
Membrane (15 μg of protein) was incubated with 1.2 nM [^3H]N^∝-methyl-histamine, without or with inhibitor compounds, in a total volume of 200 μl of buffer. Nonspecific binding was determined in the presence of 10^−5 M thioperamide. Assay mixtures were incubated for 30 min at 30° C. in polypropylene, 96-well, deep-well plates, then filtered through 0.3% polyethylenimine-soaked GF/B filters. These were washed three times with 1.2 ml of 4° C. buffer, dried in a microwave oven, impregnated with Meltilex wax scintillant and counted at 40% efficiency in a Betaplate scintillation counter (Wallac).
IC50 values were interpolated from the data or were determined from curves fit to the data with Prism nonlinear least squares curve-fitting program (GraphPad Software, San Diego, Calif.). Ki values were determined from IC50 values according to the Cheng and Prusoff equation.

H3 receptors = target: T2, H3 receptors (Cavia porcellus, UniProt Q9JI35); assay: H3 Receptor Binding Assay (guinea pig brain membranes); conditions: Receptor Source Guinea pig, [3H]R-α-methyl histamine or [3H]Nα-methyl histamine
T2 construct: The source of the H3 receptors in this experiment was guinea pig brain; from tissue; host or cells: guinea pig brain membranes
Method: General Procedure for H3Receptor Binding Assay
The source of the H3 receptors in this experiment was guinea pig brain. The animals weighed 400–600 g. The brain tissue was homogenized with a solution of 50 mM Tris, pH 7.5. The final concentration of tissue in the homogenization buffer was 10% w/v. The homogenates were centrifuged at 1,000×g for 10 min. in order to remove clumps of tissue and debris. The resulting supernatants were then centrifuged at 50,000×g for 20 min. in order to sediment the membranes, which were next washed three times in homogenization buffer (50,000×g for 20 min. each). The membranes were frozen and stored at −70° C. until needed.
All compounds to be tested were dissolved in DMSO and then diluted into the binding buffer (50 mM Tris, pH 7.5) such that the final concentration was 2 μg/ml with 0.1% DMSO. Membranes were then added (400 μg of protein) to the reaction tubes. The reaction was started by the addition of 3 nM [^3H]R-α-methyl histamine (8.8 Ci/mmol) or 3 nM [^3H]N^α-methyl histamine (80 Ci/mmol) and continued under incubation at 30° C. for 30 min. Bound ligand was separated from unbound ligand by filtration, and the amount of radioactive ligand bound to the membranes was quantitated by liquid scintillation spectrometry. All incubations were performed in duplicate and the standard error was always less than 10%. Compounds that inhibited more than 70% of the specific binding of radioactive ligand to the receptor were serially diluted to determine a Ki (nM).

T2 sequence (Q9JI35 whole entry): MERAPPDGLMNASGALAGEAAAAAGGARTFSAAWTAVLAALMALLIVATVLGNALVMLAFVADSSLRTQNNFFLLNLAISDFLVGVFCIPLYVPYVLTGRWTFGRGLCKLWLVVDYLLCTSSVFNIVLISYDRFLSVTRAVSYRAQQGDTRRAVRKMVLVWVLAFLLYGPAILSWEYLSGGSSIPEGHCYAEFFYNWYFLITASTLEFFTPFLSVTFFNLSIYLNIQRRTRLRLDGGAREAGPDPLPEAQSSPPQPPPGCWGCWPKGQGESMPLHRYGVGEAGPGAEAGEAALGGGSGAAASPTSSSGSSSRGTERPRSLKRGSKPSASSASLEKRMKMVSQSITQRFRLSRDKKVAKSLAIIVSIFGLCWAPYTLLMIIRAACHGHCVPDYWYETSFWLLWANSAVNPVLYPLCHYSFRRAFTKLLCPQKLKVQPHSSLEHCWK
T1 sequence (Q9Y5N1 whole entry): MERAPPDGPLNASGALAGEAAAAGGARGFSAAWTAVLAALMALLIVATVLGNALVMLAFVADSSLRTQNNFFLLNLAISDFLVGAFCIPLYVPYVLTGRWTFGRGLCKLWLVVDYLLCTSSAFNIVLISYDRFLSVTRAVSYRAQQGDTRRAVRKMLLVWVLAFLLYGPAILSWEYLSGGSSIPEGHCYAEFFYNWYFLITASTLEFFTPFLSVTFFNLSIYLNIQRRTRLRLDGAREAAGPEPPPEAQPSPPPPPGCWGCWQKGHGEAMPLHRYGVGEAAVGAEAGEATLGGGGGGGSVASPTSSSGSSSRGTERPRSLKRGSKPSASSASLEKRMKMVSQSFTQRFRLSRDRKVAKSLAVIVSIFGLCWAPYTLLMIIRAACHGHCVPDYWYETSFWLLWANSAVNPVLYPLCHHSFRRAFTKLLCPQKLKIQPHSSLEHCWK

Ki [1]	Ki (H3 receptors)	SMILES
1 nM	–	Nc1cc(CN2CCC(C(=O)N3CCC(n4c(-c5ccccn5)nc5cc(F)ccc54)CC3)CC2)ccn1 [Example 1]
–	13 nM	Nc1cc(CN2CCC(C(=O)N3CCC(c4nc5ccc(Cl)cc5[nH]4)CC3)CC2)ccn1 [Example 3]
9 nM	–	Nc1ncc(CN2CCC(F)(C(=O)N3CCC(n4c(-c5ccccn5)nc5cccnc54)CC3)CC2)cn1 [Example 5]
–	30 nM	Nc1cc(CN2CCC(C(=O)N3CCC(n4c(-c5cc(Cl)cc(Cl)c5)nc5ccc(Cl)cc54)CC3)CC2)ccn1 [Example 54]
–	1 nM	Nc1cc(CN2CCC(C(=O)N3CCC(n4c(-c5ccccn5)nc5cc(F)c(F)cc54)CC3)CC2)ccn1 [Example 71]
–	1 nM	Cc1cc(-c2nc3cc(F)ccc3n2C2CCN(C(=O)C3CCN(Cc4ccnc(N)c4)CC3)CC2)no1 [Example 94]
1 nM	–	CSc1nc2cc(F)ccc2n1C1CCN(C(=O)C2CCN(Cc3ccnc(N)c3)CC2)CC1 [Example 109]
–	0.3 nM	Nc1cc(CN2CCC(C(=O)N3CCC(n4c(N5CCOCC5)nc5cc(F)ccc54)CC3)CC2)ccn1 [Example 120]
2 nM	–	Nc1cc(CN2CCC(F)(C(=O)N3CCC(n4c(N5CCOCC5)nc5cc(F)ccc54)CC3)CC2)ccn1 [Example 165]
–	0.5 nM	Nc1cc(CN2CCC(C(=O)N3CCC(n4c(C5CC5)nc5cccnc54)CC3)CC2)ccn1 [Example 170]
–	0.4 nM	Nc1cc(CN2CCC(C(=O)N3CCC(n4c(-c5ccc(F)cc5)nc5cccnc54)CC3)CC2)ccn1 [Example 173]
–	10 nM	Nc1cc(CN2CCC(C(=O)N3CCC(n4c(-c5cc(-c6ccc(F)cc6)on5)nc5cccnc54)CC3)CC2)ccn1 [Example 195]
–	7 nM	Nc1ncc(CN2CCC(C(=O)N3CCC(n4c(-c5ccccn5)nc5cc(F)ccc54)CC3)CC2)cn1 [Example 211]
–	13 nM	Nc1ncc(CN2CCC(F)(C(=O)N3CCC(n4c(-c5ccc(F)cc5F)nc5cc(F)ccc54)CC3)CC2)cn1 [Example 254]
4 nM	–	CSc1nc2cc(F)ccc2n1C1CCN(C(=O)C2CCN(Cc3cnc(N)nc3)CC2)CC1 [Example 269]
4 nM	–	CCOc1nc2cc(F)ccc2n1C1CCN(C(=O)C2(F)CCN(Cc3cnc(N)nc3)CC2)CC1 [Example 270]
4 nM	–	Nc1ncc(CN2CCC(F)(C(=O)N3CCC(n4c(-c5ccoc5)nc5cccnc54)CC3)CC2)cn1 [Example 281]
3 nM	–	CSc1nc2cc(F)ccc2n1C1CCN(C(=O)C2(F)CCN(Cc3cnc(N)nc3)CC2)CC1 [Example 290]
4 nM	–	COc1nc2cc(F)ccc2n1C1CCN(C(=O)C2(F)CCN(Cc3cnc(N)nc3)CC2)CC1 [Example 297]
5 nM	–	CSc1nc2cccnc2n1C1CCN(C(=O)C2(F)CCN(Cc3cnc(N)nc3)CC2)CC1 [Example 315]
5 nM	–	CCOc1nc2cccnc2n1C1CCN(C(=O)C2(F)CCN(Cc3cnc(N)nc3)CC2)CC1 [Example 316]
2 nM	–	CC(C)Oc1nc2cc(F)ccc2n1C1CCN(C(=O)C2(F)CCN(Cc3cnc(N)nc3)CC2)CC1 [Example 326]
30 nM	–	Nc1ncc(CN2CCC(F)(C(=O)N3CCC(n4c(-c5cccc[n+]5[O-])nc5cccnc54)CC3)CC2)cn1 [Example 388]
5 nM	–	O=C(N1CCC(n2c(-c3ccccn3)nc3cc(F)ccc32)CC1)C1(F)CCN(Cc2ccnnc2)CC1 [Example 423]

Ki [1]	Ki (H3 receptors)	SMILES
1 nM	–	O=C(C1CCN(Cc2cc[nH]n2)CC1)N1CCC(n2c(-c3ccccn3)nc3cc(F)ccc32)CC1 [Example 442]
1 nM	–	Nc1ncc(CN2CCC(F)(C(=O)N3CCC(n4c(Oc5ccccc5)nc5cc(F)ccc54)CC3)CC2)cn1 [Example 449]
4 nM	–	CCCOc1nc2cc(F)ccc2n1C1CCN(C(=O)C2(F)CCN(Cc3cnc(N)nc3)CC2)CC1 [Example 459]
4 nM	–	CCCOc1nc2cc(F)ccc2n1C1CCN(C(=O)C2CCN(Cc3cnc(N)nc3)CC2)CC1 [Example 460]
10 nM	–	CCc1nc2cc(F)ccc2n1C1CCN(C(=O)C2(F)CCN(Cc3cnc(N)nc3)CC2)CC1 [Example 468]
1 nM	–	CSc1nc2cc(F)ccc2n1C1CCN(C(=O)C2CCN(Cc3ccnnc3)CC2)CC1 [Example 493]
7 nM	–	CSc1nc2cc(Cl)ccc2n1C1CCN(C(=O)C2CCN(Cc3cnc(N)nc3)CC2)CC1 [Example 502]
2 nM	–	CCOc1nc2cc(F)ccc2n1C1CCN(C(=O)C2CCN(Cc3ccnnc3)CC2)CC1 [Example 512]
14 nM	–	Nc1ncc(CN2CCC(C(=O)N3CCC(n4c(SCc5ccccc5)nc5cc(F)ccc54)CC3)CC2)cn1 [Example 547]
4 nM	–	CCCOc1nc2cccnc2n1C1CCN(C(=O)C2CCN(Cc3ccnnc3)CC2)CC1 [Example 552]
19 nM	–	O=C(C1CCN(Cc2ccnnc2)CC1)N1CCC(n2c(-c3ccccn3)nc3cc(Cl)ccc32)CC1 [Example 557]
2 nM	–	COc1nc2cc(F)ccc2n1C1CCN(C(=O)C2CCN(Cc3ccnnc3)CC2)CC1 [Example 571]
2 nM	–	CSc1nc2cc(F)c(F)cc2n1C1CCN(C(=O)C2(F)CCN(Cc3ccnc(N)c3)CC2)CC1 [Example 574]
44 nM	–	CCSc1nc2cc(C(F)(F)F)ccc2n1C1CCN(C(=O)C2CCN(Cc3cnc(N)nc3)CC2)CC1 [Example 577]
6 nM	–	CCCSc1nc2cccnc2n1C1CCN(C(=O)C2CCN(Cc3ccnnc3)CC2)CC1 [Example 588]
9 nM	–	CCOc1nc2cc(Cl)ccc2n1C1CCN(C(=O)C2CCN(Cc3ccnnc3)CC2)CC1 [Example 592]
41 nM	–	CSc1nc2cc(S(C)(=O)=O)ccc2n1C1CCN(C(=O)C2CCN(Cc3ccnnc3)CC2)CC1 [Example 595]
17 nM	–	CCc1nc2cc(F)ccc2n1C1CCN(C(=O)C2CCN(Cc3cnc(N)nc3)CC2)CC1 [Example 598]
1 nM	–	Nc1cc(CCCN2CCC(C(=O)N3CCC(n4c(-c5ccccn5)nc5cccnc54)CC3)CC2)ccn1 [Example 608]
9 nM	–	CCCc1nc2cc(F)ccc2n1C1CCN(C(=O)C2CCN(Cc3cnc(N)nc3)CC2)CC1 [Example 618]
2 nM	–	CCCc1nc2cc(F)ccc2n1C1CCN(C(=O)C2CCN(Cc3ccnnc3)CC2)CC1 [Example 619]
10 nM	–	CSc1nc2cc(Cl)ccc2n1C1CCN(C(=O)C2(F)CCN(Cc3cnc(N)nc3)CC2)CC1 [Example 625]
4 nM	–	CSc1nc2cc(Cl)ccc2n1C1CCN(C(=O)C2CCN(Cc3ccnnc3)CC2)CC1 [Example 628]
